Measured values taken from PMC5344293, “A phase 1 dose-escalation and expansion study of binimetinib (MEK162), a potent and selective oral MEK1/2 inhibitor” (British Journal of Cancer, 2017).

Experiment: Phase 1 safety: adverse events
Type: in vivo, human
Method: All patients underwent a complete medical history and physical examination, assessment of ECOG performance status and vital signs, and laboratory analysis of haematology, coagulation, clinical chemistry, and urine. Three serial resting and supine 12-lead electrocardiograms were conducted over 5–10 min and cardiac ejection fraction was assessed by echocardiogram or MUGA. In addition, a complete ophthalmologic examination (including visual acuity; fundoscopy and tonometry; optical coherence tomography; and slit-lamp, lens, vitreous, and fluorescence dye examinations) was performed on each patient. These assessments were repeated throughout study participation and/or as clinically indicated. Adverse events were reviewed on an ongoing basis.
Adverse events and serious AEs (SAEs) were coded by preferred term (PT) and system organ class using the Medical Dictionary for Regulatory Activities version 12.0. The severity of AEs was assessed by investigators using the National Cancer Institute Common Terminology Criteria for Adverse Events version 3.0. Two AEs of special interest were captured under the composite terms of ‘combined rash' and ‘combined ocular events.' The ‘combined rash' term included the PTs of dermatitis acneiform, acne, skin exfoliation, and any term containing ‘rash'. The ‘combined ocular events' term included the PTs of retinal deposits, retinopathy, papilloedema, chorioretinopathy, macular oedema, retinal detachment, and retinal disorder.
All patients who received ⩾1 dose of binimetinib were included in the safety analysis. Patients in the safety analysis who had ⩾1 measurable lesion at baseline and at least 1 post-baseline disease assessment were evaluable for efficacy. Kaplan–Meier estimates of progression-free survival (PFS) and overall survival (OS) were performed for patients in the expansion phase ([Kaplan and Meier, 1958]) using SAS Version 9.2 (SAS Institute Inc., Cary, NC, USA).

[1] = AEs regardless of causality, N=93

Cn1cnc2c(F)c(Nc3ccc(Br)cc3F)c(C(=O)NOCCO)cc21 [binimetinib]
Anaemia (80 mg BID (n=4), Gr 1/2): 0 (0) n (%)
Anorexia (80 mg BID (n=4), Gr 1/2): 1 (25) n (%)
Combined ocular events (80 mg BID (n=4), Gr 1/2): 1 (25) n (%)
Combined rash (80 mg BID (n=4), Gr 1/2): 0 (0) n (%)
Constipation (80 mg BID (n=4), Gr 1/2): 0 (0) n (%)
Diarrhoea (80 mg BID (n=4), Gr 1/2): 1 (25) n (%)
Dizziness (80 mg BID (n=4), Gr 1/2): 0 (0) n (%)
Dyspnoea (80 mg BID (n=4), Gr 1/2): 1 (25) n (%)
Fatigue (80 mg BID (n=4), Gr 1/2): 1 (25) n (%)
Nausea (80 mg BID (n=4), Gr 1/2): 1 (25) n (%)
Peripheral oedema (80 mg BID (n=4), Gr 1/2): 2 (50) n (%)
Pyrexia (80 mg BID (n=4), Gr 1/2): 0 (0) n (%)
Vomiting (80 mg BID (n=4), Gr 1/2): 2 (50) n (%)
Abdominal pain (80 mg BID (n=4), Gr 3/4): 0 (0) n (%)
Anaemia (80 mg BID (n=4), Gr 3/4): 0 (0) n (%)
Anorexia (80 mg BID (n=4), Gr 3/4): 0 (0) n (%)
Combined ocular events (80 mg BID (n=4), Gr 3/4): 1 (25) n (%)
Combined rash (80 mg BID (n=4), Gr 3/4): 1 (25) n (%)
Constipation (80 mg BID (n=4), Gr 3/4): 0 (0) n (%)
Diarrhoea (80 mg BID (n=4), Gr 3/4): 0 (0) n (%)
Dizziness (80 mg BID (n=4), Gr 3/4): 0 (0) n (%)
Dyspnoea (80 mg BID (n=4), Gr 3/4): 0 (0) n (%)
Fatigue (80 mg BID (n=4), Gr 3/4): 0 (0) n (%)
Nausea (80 mg BID (n=4), Gr 3/4): 0 (0) n (%)
Peripheral oedema (80 mg BID (n=4), Gr 3/4): 0 (0) n (%)
Pyrexia (80 mg BID (n=4), Gr 3/4): 0 (0) n (%)
Vomiting (80 mg BID (n=4), Gr 3/4): 0 (0) n (%)
AEs resulting in treatment discontinuation, patients (80 mg BID dose group): 25%
AEs that resulted in dose reduction, patients (80 mg BID dose group): 75%
Incidence of ocular events (80 mg BID dose group): 50%
Incidence of peripheral oedema (80 mg BID dose group): 50%
Median time to onset of ocular events (18 patients with ocular events, range, 2–168 days): 17 days
Patients who experienced grade 2 events [1]: 41%
Patients who experienced grade 3 events [1]: 49%
Grade 3 abdominal pain (N=93): 4%
Grade 3 anaemia (N=93): 11%
Grade 3 dehydration (N=93): 4%
Grade 4 AEs, patients (N=93): 6%
Grade 4 anaemia (N=93): 3%
Grade 5 events (N=93): no grade 5 events
Abdominal pain (Total (N=93), all grades): 20 (22) n (%)
Anaemia (Total (N=93), all grades): 24 (26) n (%)
Anorexia (Total (N=93), all grades): 18 (19) n (%)
Combined ocular events (Total (N=93), all grades): 18 (19) n (%)
Combined rash (Total (N=93), all grades): 75 (81) n (%)
Constipation (Total (N=93), all grades): 18 (19) n (%)
Diarrhoea (Total (N=93), all grades): 47 (51) n (%)
Dizziness (Total (N=93), all grades): 14 (15) n (%)
Dyspnoea (Total (N=93), all grades): 17 (18) n (%)
Fatigue (Total (N=93), all grades): 40 (43) n (%)
Nausea (Total (N=93), all grades): 52 (56) n (%)
Peripheral oedema (Total (N=93), all grades): 43 (46) n (%)
Pyrexia (Total (N=93), all grades): 17 (18) n (%)
Vomiting (Total (N=93), all grades): 48 (52) n (%)
Diarrhoea, patients (all dose levels, all grades): 51%
Fatigue, patients (all dose levels, all grades): 43%
Nausea, patients (all dose levels, all grades): 56%
Ocular events (combined), patients (all dose levels, all grades): 19%
Peripheral oedema, patients (all dose levels, all grades): 46%
Rash (combined rash and related skin disorders), patients (all dose levels, all grades): 81%
Vomiting, patients (all dose levels, all grades): 52%
AEs of increased blood CK, patients (all patients): 13%
AEs of increased blood CK-MB, patients (all patients): 1%
Combined rash grade 1, patients (all patients): 44%
Combined rash grade 2, patients (all patients): 33%
Discontinuation due to combined rash (all patients): 2%
Discontinuation due to fatigue (all patients): 3%
Discontinuation due to nausea (all patients): 3%
Discontinuation due to small intestinal obstruction (all patients): 2%
Dose modification for AEs of increased blood CK, patients (all patients): 4%
Dose reduction due to chorioretinopathy (all patients): 9%
Dose reduction due to combined rash (all patients): 3%
Dose reduction due to diarrhoea (all patients): 2%
Dose reduction due to fatigue (all patients): 2%
Dose reduction due to increased CK (all patients): 2%
Dose reduction due to macular oedema (all patients): 2%
Dose reduction due to myodesopsia (all patients): 2%
Dose reduction due to photopsia (all patients): 3%
Dose reduction due to retinal detachment (all patients): 3%
Dose reduction due to retinopathy (all patients): 2%
Dose reduction due to visual impairment (all patients): 2%
Dose reduction due to vomiting (all patients): 2%
Grade 3 ocular event of chorioretinopathy, patients (all patients): 1%
Maximum reported SAE severity grade 2, patients (all patients): 5%
Maximum reported SAE severity grade 3, patients (all patients): 22%
Maximum reported SAE severity grade 4, patients (all patients): 3%
Maximum reported severity of nausea, vomiting, or diarrhoea (all patients): either grade 1 or grade 2
Ocular events grade 1, patients (all patients): 5%
Ocular events grade 2, patients (all patients): 13%
Peripheral oedema maximum severity grade 1, patients (all patients): 32%
Peripheral oedema maximum severity grade 2, patients (all patients): 14%
Permanent discontinuation for peripheral oedema, patients (all patients): 1%
SAE anaemia (all patients): 4%
SAE bacteraemia (all patients): 2%
SAE dehydration (all patients): 2%
SAE gastrointestinal haemorrhage (all patients): 2%
SAE pneumonia (all patients): 2%
SAE small intestinal obstruction (all patients): 2%
SAE ulcer haemorrhage (all patients): 2%
Grade 1 venous stasis retinopathy, patients (all patients, led to permanent discontinuation): 1%
Combined rash grade 3, patients (all patients, required dose modification or discontinuation): 3%
Patients who died during the study or within 30 days of the last dose (cause of death disease progression in all): 22%
Patients reporting SAEs (during the study or within 30 days of the last dose, all patients): 30%
Increased CK, patients (laboratory values, all patients): 69%
Ocular events recovering/resolving (of patients with ocular events): 17%
Ocular events with complete resolution (of patients with ocular events): 78%
Ocular events with stable retinal findings at treatment discontinuation (of patients with ocular events): 6%
Clinically significant CK values, patients (shifted by ⩾3 grades from baseline and/or grade 4): 10%
